# In ChEMBL document CHEMBL3414470, “Synthesis and biological evaluation of 4-oxycoumarin derivatives as a new class of antifilarial agents” (Eur J Med Chem, 2015):
# What was measured:
# [1] = system: Brugia malayi; assay: Antifilarial activity against Brugia malayi adult worm assessed as reduction in motility at 5 uM after 5 days by MTT dye reduction assay; format: functional; conditions: 120 h
# [2] = system: Brugia malayi; assay: Antifilarial activity against Brugia malayi adult worm assessed as reduction in motility at 2.5 uM after 5 days by MTT dye reduction assay; format: functional; conditions: 120 h
# [3] = system: Brugia malayi; assay: Antifilarial activity against Brugia malayi adult worm assessed as reduction in motility at 1.25 uM after 5 days by MTT dye reduction assay; format: functional; conditions: 120 h
# [4] = system: Brugia malayi; assay: Antifilarial activity against Brugia malayi adult worm assessed as reduction in motility at 0.625 uM after 5 days by MTT dye reduction assay; format: functional; conditions: 120 h
# [5] = system: Brugia malayi; assay: Antifilarial activity against Brugia malayi adult worm assessed as reduction in motility at 0.312 uM after 5 days by MTT dye reduction assay; format: functional; conditions: 120 h
# [6] = system: Brugia malayi; assay: Antifilarial activity against Brugia malayi microfilaria assessed as reduction in motility at 5 uM after 5 days by MTT dye reduction assay; format: functional; conditions: 120 h
# [7] = system: Brugia malayi; assay: Antifilarial activity against Brugia malayi microfilaria assessed as reduction in motility at 2.5 uM after 5 days by MTT dye reduction assay; format: functional; conditions: 120 h
# [8] = system: Brugia malayi; assay: Antifilarial activity against Brugia malayi microfilaria assessed as reduction in motility at 1.25 uM after 5 days by MTT dye reduction assay; format: functional; conditions: 120 h
# [9] = system: Brugia malayi; assay: Antifilarial activity against Brugia malayi microfilaria assessed as reduction in motility at 0.625 uM after 5 days by MTT dye reduction assay; format: functional; conditions: 120 h
# [10] = system: Brugia malayi; assay: Antifilarial activity against Brugia malayi microfilaria assessed as reduction in motility at 0.312 uM after 5 days by MTT dye reduction assay; format: functional; conditions: 120 h
# [11] = system: Brugia malayi; assay: Antifilarial activity against Brugia malayi adult worm assessed as reduction in motility after 5 days by MTT dye reduction assay; format: functional, organism-based
# [12] = (§1) Selectivity index, ratio of CC50 for African green monkey Vero cells to IC50 for Brugia malayi adult worm; format: functional
# [13] = system: Brugia malayi; assay: Antifilarial activity against Brugia malayi microfilaria assessed as reduction in motility after 5 days by MTT dye reduction assay; format: functional, organism-based
# [14] = (§2) Selectivity index, ratio of CC50 for African green monkey Vero cells to IC50 for Brugia malayi microfilaria; format: functional
# [15] = (§3) Cytotoxicity against African green monkey Vero cells after 72 hrs by resazurin dye-based fluorescence assay; format: cell-based; conditions: chlorocebus sabaeus, Vero cells
# [16] = system: Brugia malayi; assay: Antifilarial activity against Brugia malayi adult worm infected in jird model assessed as adulticidal activity at 100 mg/kg, sc after 5 days measured till day 45 relative to control; format: functional; conditions: route subcutaneous
# [17] = system: Brugia malayi; assay: Antifilarial activity against Brugia malayi adult worm infected in jird model assessed as sterile female at 100 mg/kg, sc after 5 days measured till day 45 relative to control; format: functional; conditions: route subcutaneous
# [18] = system: Brugia malayi; assay: Antifilarial activity against Brugia malayi microfilariae infected in jird model assessed as microfilaricidal activity at 100 mg/kg, sc after 5 days measured till day 45 relative to control; format: functional; conditions: route subcutaneous
# [19] = system: Brugia malayi; assay: Antifilarial activity against Brugia malayi adult worm assessed as reduction in motility at 8.9 uM after 5 days by MTT dye reduction assay; format: functional, organism-based
# [20] = system: Brugia malayi; assay: Antifilarial activity against Brugia malayi adult worm assessed as reduction in motility at 4.45 uM after 5 days by MTT dye reduction assay; format: functional, organism-based
# [21] = system: Brugia malayi; assay: Antifilarial activity against Brugia malayi adult worm assessed as reduction in motility at 2.17 uM after 5 days by MTT dye reduction assay; format: functional, organism-based
# [22] = system: Brugia malayi; assay: Antifilarial activity against Brugia malayi adult worm assessed as reduction in motility at 1.12 uM after 5 days by MTT dye reduction assay; format: functional, organism-based
# [23] = system: Brugia malayi; assay: Antifilarial activity against Brugia malayi microfilaria assessed as reduction in motility at 8.9 uM after 5 days by MTT dye reduction assay; format: functional, organism-based
# [24] = system: Brugia malayi; assay: Antifilarial activity against Brugia malayi microfilaria assessed as reduction in motility at 4.45 uM after 5 days by MTT dye reduction assay; format: functional, organism-based
# [25] = system: Brugia malayi; assay: Antifilarial activity against Brugia malayi microfilaria assessed as reduction in motility at 2.17 uM after 5 days by MTT dye reduction assay; format: functional, organism-based
# [26] = system: Brugia malayi; assay: Antifilarial activity against Brugia malayi microfilaria assessed as reduction in motility at 1.12 uM after 5 days by MTT dye reduction assay; format: functional, organism-based
# [27] = system: Vero; assay: as §1; format: functional
# [28] = system: Vero; assay: as §2; format: functional
# [29] = system: Vero; assay: as §3; format: cell-based; conditions: chlorocebus sabaeus, vero, 72 h
# [30] = system: Brugia malayi; assay: Antifilarial activity against Brugia malayi adult worm assessed as reduction in motility at 0.156 uM after 5 days by MTT dye reduction assay; format: functional; conditions: 120 h
# [31] = system: Brugia malayi; assay: Antifilarial activity against Brugia malayi adult worm assessed as reduction in motility at 0.078 uM after 5 days by MTT dye reduction assay; format: functional; conditions: 120 h
# [32] = system: Brugia malayi; assay: Antifilarial activity against Brugia malayi adult worm assessed as reduction in motility at 0.039 uM after 5 days by MTT dye reduction assay; format: functional; conditions: 120 h
# [33] = system: Brugia malayi; assay: Antifilarial activity against Brugia malayi adult worm assessed as reduction in motility at 0.019 uM after 5 days by MTT dye reduction assay; format: functional; conditions: 120 h
# [34] = system: Brugia malayi; assay: Antifilarial activity against Brugia malayi microfilaria assessed as reduction in motility at 0.156 uM after 5 days by MTT dye reduction assay; format: functional; conditions: 120 h
# [35] = system: Brugia malayi; assay: Antifilarial activity against Brugia malayi microfilaria assessed as reduction in motility at 0.078 uM after 5 days by MTT dye reduction assay; format: functional; conditions: 120 h
# [36] = system: Brugia malayi; assay: Antifilarial activity against Brugia malayi microfilaria assessed as reduction in motility at 0.039 uM after 5 days by MTT dye reduction assay; format: functional; conditions: 120 h
# [37] = system: Brugia malayi; assay: Antifilarial activity against Brugia malayi microfilaria assessed as reduction in motility at 0.019 uM after 5 days by MTT dye reduction assay; format: functional; conditions: 120 h
Compound,"MIC ([11]; Brugia malayi, 120 h)","MIC ([13]; Brugia malayi, 120 h)",inhibition at 5 µM [1],inhibition at 2.5 µM [2],inhibition at 1.25 µM [3],inhibition at 0.625 µM [4],inhibition at 0.312 µM [5],inhibition at 5 µM [6],inhibition at 2.5 µM [7],inhibition at 1.25 µM [8],inhibition at 0.625 µM [9],inhibition at 0.312 µM [10],"IC50 ([11]; Brugia malayi, 120 h)",Ratio CC50/IC50 [12],"IC50 ([13]; Brugia malayi, 120 h)",Ratio CC50/IC50 [14],CC50 at 72 h [15],Activity [16],Activity [17],Activity [18],also measured
CN1CCN(CC(O)COc2cc(=O)oc3ccccc23)CC1 (stereo unspecified),5 µM,2.5 µM,85.6%,45.8%,38.7%,29.8%,11.8%,100%,75%,75%,75%,75%,1730 nM,>57.8,280 nM,>357.14,> 100000 nM,44.4%,0%,30.4%,–
O=c1cc(OCC(O)CNC2CC2)c2ccccc2o1 (stereo unspecified),5 µM,2.5 µM,97.5%,56.4%,43.7%,34.3%,–,100%,75%,75%,75%,–,880 nM,>113.6,380 nM,>263.15,> 100000 nM,52.8%,0%,31.4%,–
IVERMECTIN [listing 1 of 2 here],–,–,–,–,–,–,–,–,–,–,–,–,–,–,–,–,–,–,–,–,inhibition [19]: 61.2%; inhibition [20]: 35.3%; inhibition [21]: 21.6%; inhibition [22]: 17.7%; inhibition [23]: 0%; inhibition [24]: 1%; inhibition [25]: 1%; inhibition [26]: 50%; MIC [11]: 8.9 µM; Ratio CC50/IC50 [27]: 29.5; MIC [13]: 10 µM; Ratio CC50/IC50 [28]: 13.3
IVERMECTIN [listing 2 of 2 here],–,–,–,–,–,–,–,–,–,–,–,–,–,–,–,–,–,–,–,–,IC50 [11]: 1800 nM; IC50 [13]: 4000 nM; CC50 [29]: 53200 nM
CCCCCCCC/C=C/CCCCCCCCNCC(O)COc1cc(=O)oc2ccccc12 (stereo unspecified),0.31 µM,0.31 µM,–,–,–,–,90.4%,–,–,–,–,100%,94 nM,>1063,13 nM,>7692,> 100000 nM,69.4%,16.6%,50.9%,inhibition at 0.156 µM [30]: 45%; inhibition at 0.078 µM [31]: 42%; inhibition at 0.039 µM [32]: 10.2%; inhibition at 0.019 µM [33]: 8.5%; inhibition at 0.156 µM [34]: 75%; inhibition at 0.078 µM [35]: 75%; inhibition at 0.039 µM [36]: 50%; inhibition at 0.019 µM [37]: 50%
O=c1cc(OCC(O)CNC2CCCCC2)c2ccccc2o1 (stereo unspecified),2.5 µM,2.5 µM,–,92%,47%,24.2%,16.2%,–,100%,100%,50%,50%,360 nM,>277.7,260 nM,>384.6,> 100000 nM,66.6%,0%,31.8%,–
